Residues, ends and D or L forms follow the SMILES beside them.

Test [1] concerns the target T1, MPO (Homo sapiens, UniProt P05164).
T1 sequence (P05164 49-745): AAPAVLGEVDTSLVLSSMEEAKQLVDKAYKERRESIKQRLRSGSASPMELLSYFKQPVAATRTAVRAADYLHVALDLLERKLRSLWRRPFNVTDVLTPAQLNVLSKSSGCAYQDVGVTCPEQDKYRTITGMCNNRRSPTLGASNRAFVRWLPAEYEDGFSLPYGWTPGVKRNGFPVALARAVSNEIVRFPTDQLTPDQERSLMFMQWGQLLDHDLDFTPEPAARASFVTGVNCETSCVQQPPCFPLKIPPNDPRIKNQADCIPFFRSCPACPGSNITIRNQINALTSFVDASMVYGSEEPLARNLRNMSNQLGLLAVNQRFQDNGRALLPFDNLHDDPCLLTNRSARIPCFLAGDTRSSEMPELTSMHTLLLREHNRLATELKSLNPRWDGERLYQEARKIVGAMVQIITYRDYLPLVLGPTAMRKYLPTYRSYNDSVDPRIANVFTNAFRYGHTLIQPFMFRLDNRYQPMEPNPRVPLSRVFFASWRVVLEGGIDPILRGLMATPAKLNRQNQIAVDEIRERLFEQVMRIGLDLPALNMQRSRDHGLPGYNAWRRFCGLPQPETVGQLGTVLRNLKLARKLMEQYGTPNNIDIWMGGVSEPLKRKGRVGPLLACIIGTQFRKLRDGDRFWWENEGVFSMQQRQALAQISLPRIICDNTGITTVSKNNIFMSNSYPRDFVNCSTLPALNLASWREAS
In words: MPO-mediated LDL malondialdehyde (MDA) formation. To be noted: increasing concentrations; 37° C., 4 h. Details: purchased Lee Biosolutions (St. Louis, Mo.). It counts as biochemical. The protocol:
MPO-mediated LDL Malondialdehyde (MDA) Formation: Reaction mixtures contained LDL (0.5 mg/mL), NaNO2 (50 μM), H2O2 (50 μM), MPO (50 nM) and increasing concentrations of KYC in a phosphate buffer (100 mM, pH 7.4) containing DTPA (100 μM). After incubation at 37° C. for 4 h, the reactions were stopped by addition of catalase (2,000 units/mL). The formation of MDA was determined according to a published procedure. Briefly, incubation mixtures (containing 25 mM BHT) were adjusted to pH 1.5 and incubated at 60° C. for 80 min to hydrolyze the Schiff Bases formed from MDA and protein. The samples were mixed with 3-fold volume of N-methyl-2-phenylindole (13.4 mM in acetonitrile/methanol (3:1)). After centrifugation (13000 g, 5 min) 330 μL of the supernatants were mixed with 57.5 μL of concentrated HCl and incubated at 45° C. for another 60 min. Finally, after centrifugation (13000 g, 5 min), total MDA in the samples was determined from the absorbance at 586 nm using a UV-Vis spectrophotometer (Agilent Model 8453).

Test [2] concerns facialis arteries from non-treated SCD mice. Description: Vasodilatation of facialis arteries from untreated SCD mice, peptide added ex vivo. Set-up: species or system mouse. To be noted: KYC 1.5 μg/ml, 20 min. The method, then:
For vessels treated with KYC (ex-vivo): Using untreated SCD mice, the vessels were isolated/cannulated the same as for the mice treated with KYC in vivo. After the control dose-response curve using acetylcholine (ACh, 10^−7-10^−4 M) and subsequent washing, the vessels were incubated with KYC 1.5 μg/ml for 20 minutes, pre-constricted, and exposed to acetylcholine (ACh, 10^−7-10^−4 M). Vasodilation to papaverine (2.0×10^−4 M) was determined after all treatments to ensure smooth muscle viability. Vasodilation was calculated as a percent of maximal vessel diameter change.

In test [3] the test system is SCD mice. Description: Immunofluorescence of aortas of treated SCD mice (chlorotyrosine, MPO). It counts as in vivo, mouse. The settings on record: KYC IP 0.3 mg/kg/d, three weeks, vs non-treated SCD mice. The method, then: Immunofluorescence Studies. In a separate study, SCD mice were treated with KYC (IP, 0.3 mg/kg/d). After three weeks treatment, mice were deeply anesthetized and euthanized by exsanguination. Thoracic and abdominal aortas were surgically removed and rinsed free of blood elements using ice cold PBS. Aortas were fixed, imbedded in paraffin, and sectioned.

The target of test [4] is T1, MPO. In words: MPO-mediated LDL Trp oxidation (Trp fluorescence). It counts as biochemical. Details: purchased Lee Biosolutions (St. Louis, Mo.). The settings on record: MPO/H2O2/NO2−, 30 min, room temperature. The method, then: MPO-mediated LDL Trp Oxidation: Reaction mixtures containing LDL (0.15 mg/mL), NaNO2 (100 μM), H2O2 (100 μM), MPO (20 nM) and increasing concentrations of KYC in a phosphate buffer (100 mM, pH 7.4) containing DTPA (100 μM) were incubated at room temperature for 30 min. Reactions were stopped by addition of catalase (2,000 units/mL) and the oxidation of Trp in LDL was determined by measuring changes in the intrinsic fluorescence of Trp (Ex 294 nm/Em 345 nm) using a LC-50 fluorometer (Perkin Elmer, Waltham Mass.).

For `CC(=O)N[C@@H](CCCCN)C(=O)N[C@@H](Cc1ccc(O)cc1)C(=O)N[C@@H](CS)C(N)=O` [KYC, N-acetyl Lysyltyrosylcysteine Amide] (Ac-Lys-Tyr-Cys-NH2), the “MPO-mediated MDA formation in LDL (in words)” value in test [1] is “dose-dependently inhibited”. Also, the “Vasodilatation in response to ACh, peptide added to vessel bath (in words)” value in test [2] is on record as “did not increase vasodilatation”. Further, in test [3], the “Chlorotyrosine levels in aortas (in words)” value is recorded as “reduced” and the “MPO levels in aortas (in words)” value is reported as “reduced”. Further, the “MPO-dependent oxidation of Trp residues in LDL (in words)” value in test [4] was “protected the Trp residues”.

(Values after patent US8937039B2, “Peptide-based peroxidase inhibitors and methods of using same” (The Medical College of Wisconsin, Inc., priority 2009, dated 2015).)
